Measurements as given in patent US20250296932A1, “PHARMACEUTICAL COMPOSITIONS COMPRISING HIV INTEGRASE INHIBITORS” (priority 2024, published 2025).

Assays:
[1] = system: HIV-1 (HXB2) site directed mutant E92Q; experiment: HIV-1 replication in MT-4 cells, INSTI resistant site-directed mutant E92Q; format: cell-based; settings: 5 days, Cell Titer Glo, at least 3 independent experiments in quadruplicate
Experimental: (§1) The compound of Formula I, along with control compounds bictegravir and raltegravir, were tested in a high-throughput 384-well assay format for ability to inhibit the replication of HIV-1 (HXB2) in MT-4 cells. Compounds were serially diluted (1:3) in 10 ul DMSO on 384-well plates and then diluted 187-fold into complete RPMI media using the uFLow and Biomek FX. 0.4 uL of compound was added in quadruplicate to 384-well assay plates. Each plate contained 8 test compounds, plus DMSO negative and 5 uM AZT positive controls. 1 mL aliquots of 2M MT-4 cells were pre-infected for 1 hr, @ 37° C. with 25 uL (MT-4) of either RPMI (mock-infected) or a fresh 1:250 dilution of an HIV-1 (HXB2 WT or site directed mutants containing either single INSTI Mutations E92Q, Y143R, Q148R, N155H, or R263K or double mutations E92Q/N155H, E138K/Q148K, or G140S/Q148R) concentrated ABI stock. Infected and uninfected cells were diluted in RPMI and 35 uL containing 2000 MT-4 cells was added to each well of assay plates, using the uFLow and subsequently incubated for 5 days at 37° C. in an incubator set at 5% CO2 and 90% humidity. After 5 days, 22 uL Cell Titer Glo (Promega, Madison, WI, Cat #G7573) was added to the assay plates with a Biotek uFlow Workstation. Plates were subsequently placed on a Perkin Elmer Envision Plate Reader for 5 minutes before the luminescence signal was read. EC50 values were defined as the compound concentration that causes a 50 decrease in luminescence signal, a measure of HIV-1 replication, and were calculated in Accord (online tool) using a one-site dose-response model to generate sigmoidal curve fits. Fold shifts for mutant viruses were obtained by calculating EC50 values relative to the HXB2 WT control.
(§2) The mean fold change values (relative to WT) are from at least 3 independent experiments assayed in quadruplicate.

[2] = system: HIV-1 (HXB2) site directed mutant Y143R; experiment: HIV-1 replication in MT-4 cells, INSTI resistant site-directed mutant Y143R; format: cell-based; settings: 5 days, Cell Titer Glo, at least 3 independent experiments in quadruplicate
Experimental: as §1, §2

[3] = system: HIV-1 (HXB2) site directed mutant Q148R; experiment: HIV-1 replication in MT-4 cells, INSTI resistant site-directed mutant Q148R; format: cell-based; settings: 5 days, Cell Titer Glo, at least 3 independent experiments in quadruplicate
Experimental: as §1, §2

[4] = system: HIV-1 (HXB2) site directed mutant N155H; experiment: HIV-1 replication in MT-4 cells, INSTI resistant site-directed mutant N155H; format: cell-based; settings: 5 days, Cell Titer Glo, at least 3 independent experiments in quadruplicate
Experimental: as §1, §2

[5] = system: HIV-1 (HXB2) site directed mutant R263K; experiment: HIV-1 replication in MT-4 cells, INSTI resistant site-directed mutant R263K; format: cell-based; settings: 5 days, Cell Titer Glo, at least 3 independent experiments in quadruplicate
Experimental: as §1, §2

[6] = system: HIV-1 (HXB2) site directed mutant E92Q/N155H; experiment: HIV-1 replication in MT-4 cells, INSTI resistant site-directed mutant E92Q/N155H; format: cell-based; settings: 5 days, Cell Titer Glo, at least 3 independent experiments in quadruplicate
Experimental: as §1, §2

[7] = system: HIV-1 (HXB2) site directed mutant E138K/Q148K; experiment: HIV-1 replication in MT-4 cells, INSTI resistant site-directed mutant E138K/Q148K; format: cell-based; settings: 5 days, Cell Titer Glo, at least 3 independent experiments in quadruplicate
Experimental: as §1, §2

[8] = system: HIV-1 (HXB2) site directed mutant G140S/Q148R; experiment: HIV-1 replication in MT-4 cells, INSTI resistant site-directed mutant G140S/Q148R; format: cell-based; settings: 5 days, Cell Titer Glo, at least 3 independent experiments in quadruplicate
Experimental: as §1, §2

[9] = system: NRTI-resistant (NRTI-r) HIV-1 mutants (LAI-based viruses encoding RT mutations K65R, M184V, M41L+T215Y); experiment: Antiviral potency against panel of HIV-1 mutants: NRTI-resistant; format: cell-based; settings: relative to WT; at least three experiments run in triplicate; controls: NRTIs (TAF, FTC)
Experimental: (§3) The human T-lymphoblastoid MT-2 and SupTI cell lines were obtained from the NIH AIDS Reagent Program (Germantown, MD) and maintained in RPMI-1640 medium supplemented with 10% heat-inactivated fetal bovine serum, 100 units/mL penicillin, and 10 μg/mL streptomycin (complete RPMI media). Cells were passaged twice per week and kept at densities less than 800,000 cells per mL. Adherent HEK293T cells were obtained from the Gladstone Institute for Virology and Immunology (San Francisco, CA) and maintained at densities below 80% confluency in Dulbecco's Modified Eagle Medium (DMEM) (Gibco) supplemented with 10% heat-inactivated FBS, 100 units/mL penicillin, and 10 μg/mL streptomycin (complete DMEM media). Unless otherwise noted, HIV-1 recombinant strains carrying mutations were prepared by transfecting infectious proviral pLAI-based or pHXB2-based cDNA clones into MT-2 cells and harvesting the cell supernatants. The NNRTI-resistant HXB2-based viruses encoding reverse transcriptase (RT) mutations (K103N, Y181C, Y188L, L100I+K103N, and G190A) were constructed by site-directed mutagenesis. The NRTI-resistant LAI-based viruses encoding RT mutations K65R, M184V, and M41L+T215Y were constructed by site-directed mutagenesis. […].
(§4) The EC50 fold change range is the mean±standard deviation from at least three experiments run in triplicate. […]

[10] = system: NNRTI-resistant (NNRTI-r) HIV-1 mutants (HXB2-based viruses encoding RT mutations K103N, Y181C, Y188L, L100I+K103N, G190A); experiment: Antiviral potency against panel of HIV-1 mutants: NNRTI-resistant; format: cell-based; settings: relative to WT; at least three experiments run in triplicate; control: NNRTI (EFV)
Experimental: as §3, §4

[11] = system: PI-resistant (PI-r) HIV-1 mutants (HXB2-based viruses encoding protease mutations 150V, 184V+L90M, G48V+V82A+L90M, G48V+V82S); experiment: Antiviral potency against panel of HIV-1 mutants: PI-resistant; format: cell-based; settings: relative to WT; at least three experiments run in triplicate; controls: PIs (DRV, ATV)
Experimental: as §3, §4

[12] = system: CAI-resistant (CAI-r) HIV-1 reporter viruses encoding capsid mutations (L56I, N57H, M66I, K70N, Q67H+N74D, Q67H+T107N); experiment: Antiviral potency against panel of HIV-1 mutants: CAI-resistant single cycle reporter viruses; format: cell-based; settings: relative to WT; at least three experiments run in triplicate; control: CAI (LEN)
Experimental: as §3, §4

[13] = Hygroscopicity by dynamic vapor sorption (DVS) of crystalline forms, salts and co-crystals; format: physicochemical
Experimental: Hygroscopicity was studied using dynamic vapor sorption (DVS, TA Q5000 SA, TA Instruments, New Castle, DE or DVS, DVS Intrinsic, Surface Measurement Systems, London, UK). […] The water sorption and desorption were studied as a function of relative humidity (RH) at 25° C. […] Data analysis was performed using Universal Analysis 2000 Version 4.7A (TA Instruments, New Castle, DE) for TA DVS runs and Microsoft Excel for SMS DVS runs.

**Q.** What does the source list for `O=C(NCc1c(F)cc(F)cc1F)c1cn2c(c(O)c1=O)C(=O)N1[C@H]3CC[C@H](C3)O[C@@H]1C2` [Bictegravir]?
**A.** Mean EC50 Fold Change (relative to WT), E92Q [1]: 1.6 fold; Mean EC50 Fold Change (relative to WT), Y143R [2]: 1.8 fold; Mean EC50 Fold Change (relative to WT), Q148R [3]: 0.7 fold; Mean EC50 Fold Change (relative to WT), N155H [4]: 1.3 fold; Mean EC50 Fold Change (relative to WT), R263K [5]: 1.9 fold; Mean EC50 Fold Change (relative to WT), E92Q/N155H [6]: 1.2 fold; Mean EC50 Fold Change (relative to WT), E138K/Q148K [7]: 4.4 fold; Mean EC50 Fold Change (relative to WT), G140S/Q148R [8]: 2.1 fold

**Q.** Which “EC50 Fold Change, Range, NRTI-r” value [9] does the source give for `C[C@@H]1C=C[C@H](C)N2CN1n1cc(C(=O)NCc3c(F)cc(F)cc3F)c(=O)c(O)c1C2=O` [Compound of Formula I, (1S,2R,5S)-8-hydroxy-2,5-dimethyl-7,9-dioxo-N-(2,4,6-trifluorobenzyl)-2,5,7,9-tetrahydro-1,6-methanopyrido[1,2-b][1,2,5]triazonine-10-carboxamide] here?
**A.** Its value is 0.4-0.8 fold.

**Q.** And the “EC50 Fold Change, Range, NNRTI-r” value [10]?
**A.** The value was 0.7-2.4 fold.

**Q.** And the “EC50 Fold Change, Range, PI-r” value [11]?
**A.** The value was 0.4-1.3 fold.

**Q.** And the “EC50 Fold Change, Range, CAI-r” value [12]?
**A.** Its value is 0.8-1.2 fold.

**Q.** What about the “Mean EC50 Fold Change (relative to WT), E92Q” value [1] of the same compound?
**A.** The value was 2.7 fold.

**Q.** And the “Mean EC50 Fold Change (relative to WT), Y143R” value [2]?
**A.** Its value is 2.5 fold.

**Q.** And the “Mean EC50 Fold Change (relative to WT), Q148R” value [3]?
**A.** The value was 1.0 fold.

**Q.** What about the “Mean EC50 Fold Change (relative to WT), N155H” value [4] of the same compound?
**A.** Its value is 1.9 fold.

**Q.** And the “Mean EC50 Fold Change (relative to WT), R263K” value [5]?
**A.** The value was 2.0 fold.

**Q.** And the “Mean EC50 Fold Change (relative to WT), E92Q/N155H” value [6]?
**A.** The value was 1.8 fold.

**Q.** And the “Mean EC50 Fold Change (relative to WT), E138K/Q148K” value [7]?
**A.** Its value is 9.5 fold.

**Q.** What about the “Mean EC50 Fold Change (relative to WT), G140S/Q148R” value [8] of the same compound?
**A.** The value was 5.5 fold.

**Q.** Which “form of the material post DVS experiment” value ([13]; after DVS sorption/desorption at 25° C.) does the source give for `C[C@@H]1C=C[C@H](C)N2CN1n1cc(C(=O)NCc3c(F)cc(F)cc3F)c(=O)c(O)c1C2=O` [Compound of Formula I, Form I, (1S,2R,5S)-8-hydroxy-2,5-dimethyl-7,9-dioxo-N-(2,4,6-trifluorobenzyl)-2,5,7,9-tetrahydro-1,6-methanopyrido[1,2-b][1,2,5]triazonine-10-carboxamide] here?
**A.** Its value is “not have changed form”.

**Q.** What about the “water absorbed (DVS)” value ([13]; up to 95% RH at 25° C.) of the same compound?
**A.** Its value is “about 0.15%”.

**Q.** Which “Mean EC50 Fold Change (relative to WT), E92Q” value [1] does the source give for `Cc1nnc(C(=O)NC(C)(C)c2nc(C(=O)NCc3ccc(F)cc3)c(O)c(=O)n2C)o1` [Raltegravir] here?
**A.** The value was 4.8 fold.

**Q.** And the “Mean EC50 Fold Change (relative to WT), Y143R” value [2]?
**A.** Its value is 18 fold.

**Q.** What about the “Mean EC50 Fold Change (relative to WT), Q148R” value [3] of the same compound?
**A.** Its value is 16 fold.

**Q.** What about the “Mean EC50 Fold Change (relative to WT), N155H” value [4] of the same compound?
**A.** Its value is 6.1 fold.

**Q.** And the “Mean EC50 Fold Change (relative to WT), R263K” value [5]?
**A.** Its value is 1.1 fold.

**Q.** And the “Mean EC50 Fold Change (relative to WT), E92Q/N155H” value [6]?
**A.** The value was 58 fold.

**Q.** What about the “Mean EC50 Fold Change (relative to WT), E138K/Q148K” value [7] of the same compound?
**A.** Its value is 6.5 fold.

**Q.** And the “Mean EC50 Fold Change (relative to WT), G140S/Q148R” value [8]?
**A.** Its value is 108 fold.
